Reference: patent US4372964A, “Antiinflammatory 4,5-diaryl-1H-imidazole-2-methanols” (E. I. Du Pont de Nemours and Company, priority 1981, dated 1983)
Like-named read-outs stand apart in the source and are kept apart here.

Columns and labels:
[1] = tested on: phenylquinone writhing in mice; assay: Phenylquinone Writhing Test; type: in vivo, female white mice; settings: Mus musculus, oral, observed from 30 minutes after dosing for 10 minutes
Procedure: Aqueous (0.10% phenyl-p-benzoquinone) phenylquinone was injected intraperitoneally at 24 minutes later using 0.20 ml per mouse.

[2] = tested on: adjuvant-induced arthritis in rats; assay: Established Adjuvant-Induced Arthritis in Rats; type: in vivo, Lewis (Wistar) male rats; settings: Rattus norvegicus; for ED50: oral once daily 7 days (days 14-20), decrease from control paw volume, day 21; for inhibition in vivo at 9 mg/kg: Table 3, dose 9 mg/kg
[3] = 168 h, Table 4, dose 25 mg/kg, oral once daily 7 days, read-out: Adjuvant Arthritis, percent reduction in paw volume at the indicated dose
[4] = 168 h, oral once daily 7 days, read-out: Adjuvant Arthritis, percent reduction in paw volume at the indicated dose
[5] = 168 h, Table 3, dose 50 mg/kg, oral once daily 7 days, read-out: Adjuvant Arthritis, percent reduction in paw volume at the indicated dose
[6] = 168 h, Table 3, dose 25 mg/kg, oral once daily 7 days, read-out: Adjuvant Arthritis, percent reduction in paw volume at the indicated dose

Row | Compound | ED50 ([1]; Table 3, Formula I) [mg/kg] | ED50 ([2]; Table 3, Formula I) [mg/kg] | other results
1 | CC(=O)OC(c1nc(-c2ccc(F)cc2)c(-c2ccc(F)cc2)[nH]1)(C(F)(F)F)C(F)(F)F [Example 25] | > 108 | 13 | 
2 | COc1ccc(-c2nc(C(O)(C(F)F)C(F)(F)F)[nH]c2-c2ccc(OC)cc2)cc1 (stereo not drawn) [Example 15, 4,5-bis(4-methoxyphenyl)-α-difluoromethyl-α-trifluoromethyl-1H-imidazole-2-methanol] | 1.4 | 3 | 
3 | COc1ccc(-c2nc(C(=O)C(F)(F)C(F)(F)F)[nH]c2-c2ccc(OC)cc2)cc1 [Example 38, 1-[4,5-bis(4-methoxyphenyl)-1H-imidazol-2-yl]-2,2,3,3,3-pentafluoro-1-propanone] |  |  | ED50 ([1]; Table 4, Formula II): 2.3 mg/kg; inhibition in vivo at 25 mg/kg [2, 3]: 62%
4 | CCOC(=O)OC(c1nc(-c2ccc(OC)cc2)c(-c2ccc(OC)cc2)n1C)(C(F)(F)F)C(F)(F)F [Example 6, 4,5-Bis(4-methoxyphenyl)-1-methyl-α,α-di(trifluoromethyl)-1H-imidazole-2-methanol, Ethylcarbonate] | > 108 |  | inhibition in vivo at 45 mg/kg ([2]; 168 h, Table 3, dose 45 mg/kg, oral once daily 7 days, read-out: Adjuvant Arthritis, percent reduction in paw volume at the indicated dose): 17%
5 | CSc1ccc(-c2[nH]c(C(C)(O)C(F)(F)F)nc2-c2ccc(F)cc2)cc1 (stereo not drawn) [Example 24] | 102 |  | inhibition in vivo at 9 mg/kg [2, 4]: 51%
6 | COc1ccc(-c2nc(C(O)(C(F)(F)Cl)C(F)(F)Cl)[nH]c2-c2ccc(OC)cc2)cc1 [Example 13] | 135 | 15 | 
7 | OC(c1nc(-c2ccc(F)cc2)c(-c2ccc(F)cc2)[nH]1)C(F)(F)C(F)(F)F (stereo not drawn) [Example 23] | 24 | 6.8 | 
8 | CCC(O)(c1nc(-c2ccc(F)cc2)c(-c2ccc(F)cc2)[nH]1)C(F)(F)F (stereo not drawn) [Example 31, 4,5-bis(4-fluorophenyl)-α-ethyl-α-trifluoromethyl-1H-imidazole-2-methanol] | > 108 | 1.7 | 
9 | OC(c1nc(-c2ccc(F)cc2)c(-c2cccs2)[nH]1)(C(F)(F)F)C(F)(F)F [Example 14] | > 108 | 90 | 
10 | COc1ccc(-c2nc(C(O)C(F)(F)F)[nH]c2-c2ccc(OC)cc2)cc1 (stereo not drawn) [Example 10, 4,5-Bis(4-methoxyphenyl)-α-(trifluoromethyl)-1H-imidazole-2-methanol] | 1.9 | 45 | 
11 | COc1ccc(-c2nc(C(C)=O)[nH]c2-c2ccc(OC)cc2)cc1 [Example 40] |  |  | ED50 ([1]; Table 4, Formula II): > 135 mg/kg; inhibition in vivo at 50 mg/kg ([2]; 168 h, Table 4, dose 50 mg/kg, oral once daily 7 days, read-out: Adjuvant Arthritis, percent reduction in paw volume at the indicated dose): 56%
12 | CSc1ccc(-c2[nH]c(C(=O)C(F)(F)F)nc2-c2ccc(F)cc2)cc1 [Example 37] |  |  | ED50 ([1]; Table 4, Formula II): > 108 mg/kg; inhibition in vivo at 25 mg/kg [2, 3]: 24%
13 | COc1ccc(-c2nc(C(OC)(C(F)(F)F)C(F)(F)F)[nH]c2-c2ccc(OC)cc2)cc1 [Example 7, 4,5-Bis(4-methoxyphenyl)-2-[1-methoxy-2,2,2-trifluoro-1-(trifluoromethyl)ethyl]-1H-imidazole] | 32 | 4.4 | 
14 | OC(c1nc(-c2ccc(F)cc2)c(-c2ccc(F)cc2)[nH]1)C(F)(F)F (stereo not drawn) [Example 27] | > 108 | 14 | 
15 | COc1ccc(-c2nc(C(O)(C(F)(F)F)C(F)(F)F)[nH]c2-c2ccc(OC)cc2)cc1 [Example 2, 4,5-Bis(4-methoxyphenyl)-α,α-di(trifluoromethyl)-1H-imidazole-2-methanol] | 2.7 | 5 | 
16 | COc1ccc(-c2nc(C(C)O)[nH]c2-c2ccc(OC)cc2)cc1 (stereo not drawn) [Example 35] | 26 | 3.6 | 
17 | O=C(c1nc(-c2ccc(F)cc2)c(-c2ccc(F)cc2)[nH]1)C(F)(F)F [Example 8, 1-[4,5-Bis(4-fluorophenyl)-1H-imidazol-2-yl]-2,2,2-trifluoro-1-ethanone] |  |  | ED50 ([1]; Table 4, Formula II): > 108 mg/kg; inhibition in vivo at 25 mg/kg [2, 3]: 49%
18 | CC(C)(O)c1nc(-c2ccc(F)cc2)c(-c2ccc(F)cc2)[nH]1 [Example 28] | > 108 |  | inhibition in vivo at 50 mg/kg [2, 5]: 48%
19 | OC(c1nc(-c2ccccc2)c(-c2ccccc2)[nH]1)(C(F)(F)F)C(F)(F)F [Example 20] | 57 | 27 | 
20 | OC(c1nc(-c2ccc(Cl)cc2)c(-c2ccc(Cl)cc2)[nH]1)(C(F)(F)F)C(F)(F)F [Example 22] | > 135 |  | inhibition in vivo at 9 mg/kg [2, 4]: 37%
21 | CC(=O)c1nc(-c2ccc(F)cc2)c(-c2ccc(F)cc2)[nH]1 [Example 41] |  |  | inhibition in vivo at 25 mg/kg [2, 3]: 0%

Row | Compound | ED50 ([1]; Table 3, Formula I) [mg/kg] | ED50 ([2]; Table 3, Formula I) [mg/kg] | other results
22 | CCCC(O)(c1nc(-c2ccc(F)cc2)c(-c2ccc(F)cc2)[nH]1)C(F)(F)F (stereo not drawn) [Example 32] | > 108 | 8.6 | 
23 | CC(O)(c1nc(-c2ccc(F)cc2)c(-c2ccc(F)cc2)[nH]1)C(F)(F)F (stereo not drawn) [Example 3, 4,5-Bis(4-fluorophenyl)-α-methyl-α-trifluoromethyl-1H-imidazole-2-methanol] | 39 | 1.8 | 
24 | COc1ccc(-c2nc(C(=O)C(F)(F)F)n(C)c2-c2ccc(OC)cc2)cc1 [Example 36, 1-[4,5-bis(4-methoxyphenyl)-1-methyl-1H-imidazol-2-yl]-2,2,2-trifluoro-1-ethanone] |  |  | ED50 ([1]; Table 4, Formula II): > 108 mg/kg; inhibition in vivo at 25 mg/kg [2, 3]: 28%
25 | COc1ccc(-c2nc(C(OC(C)=O)(C(F)(F)F)C(F)(F)F)n(C)c2-c2ccc(OC)cc2)cc1 [Example 5, 4,5-Bis(4-methoxyphenyl)-1-methyl-α,α-di(trifluoromethyl)-1H-imidazole-2-methanol, Acetate] | > 108 |  | inhibition in vivo at 25 mg/kg [2, 6]: 45%
26 | CCC(C)(O)c1nc(-c2ccc(OC)cc2)c(-c2ccc(OC)cc2)[nH]1 (stereo not drawn) [Example 34] | 5.2 |  | inhibition in vivo at 50 mg/kg [2, 5]: 82%
27 | COc1ccc(-c2nc(C(O)(C(F)(F)F)C(F)(F)F)n(C)c2-c2ccc(OC)cc2)cc1 [Example 4, 4,5-Bis(4-methoxyphenyl)-1-methyl-α,α-(trifluoromethyl)-1H-imidazole-2-methanol] | > 135 | 15 | 
28 | COc1ccc(-c2nc(C(O)C(F)(F)F)n(C)c2-c2ccc(OC)cc2)cc1 (stereo not drawn) [Example 19] | > 108 |  | inhibition in vivo at 27 mg/kg ([2]; 168 h, Table 3, dose 27 mg/kg, oral once daily 7 days, read-out: Adjuvant Arthritis, percent reduction in paw volume at the indicated dose): 0%
29 | OC(c1nc(-c2ccc(F)cc2)c(-c2ccc(F)cc2)[nH]1)(C(F)F)C(F)(F)F (stereo not drawn) [Example 16, 4,5-bis(4-fluorophenyl)-α-difluoromethyl-α-trifluoromethyl-1H-imidazole-2-methanol] | > 108 | 4.8 | 
30 | COc1ccc(-c2nc(C(=O)C(F)(F)F)[nH]c2-c2ccc(OC)cc2)cc1 [Example 9, 1-[4,5-Bis(4-methoxyphenyl)-1H-imidazol-2-yl]2,2,2-trifluoro-1-ethanone] |  |  | ED50 ([1]; Table 4, Formula II): > 108 mg/kg; ED50 ([2]; Table 4, Formula II): 25 mg/kg
31 | O=C(c1nc(-c2ccc(F)cc2)c(-c2ccc(F)cc2)[nH]1)C(F)(F)C(F)(F)F [Example 39, 1-[4,5-bis(4-fluorophenyl)-1H-imidazol-2-yl]-2,2,3,3,3-pentafluoro-1-propanone] |  |  | ED50 ([2]; Table 4, Formula II): 3 mg/kg
32 | COc1ccc(-c2nc(C(C)(C)O)[nH]c2-c2ccc(OC)cc2)cc1 [Example 30, 4,5-bis(4-methoxyphenyl)-α,α-dimethyl-1H-imidazole-2-methanol] | 4.6 | 6.4 | 
33 | COc1ccc(-c2nc(C(C)(O)C(F)(F)C(F)(F)F)[nH]c2-c2ccc(OC)cc2)cc1 (stereo not drawn) [Example 29, 4,5-bis(4-methoxyphenyl)-α-methyl-α-pentafluoroethyl-1H-imidazole-2-methanol] | 3.5 | 15 | 
34 | COc1ccc(-c2nc(C(C)(O)C3CC3)[nH]c2-c2ccc(OC)cc2)cc1 (stereo not drawn) [Example 33] | 5.6 |  | inhibition in vivo at 9 mg/kg [2, 4]: 46%
35 | COc1ccc(-c2nc(C(O)(C(F)(F)F)C(F)(F)Cl)[nH]c2-c2ccc(OC)cc2)cc1 (stereo not drawn) [Example 12] | 42 | 6 | 
36 | CC(O)(c1nc(-c2ccc(F)cc2)c(-c2ccc(F)cc2)[nH]1)C(F)(F)C(F)(F)F (stereo not drawn) [Example 11, 4,5-Bis(4-Fluorophenyl)-α-methyl-α-/pentafluoroethyl-1H-imidazole-2-methanol] | > 108 | 1.4 | 
37 | OC(c1nc(-c2ccc(F)cc2)c(-c2ccc(F)cc2)[nH]1)(C(F)(F)F)C(F)(F)F [Example 1, 4,5-Bis(4-fluorophenyl)-α,α-di(trifluoromethyl)-1H-imidazole-2-methanol] | > 108 | 8 | 
38 | OC(c1nc(-c2ccccc2)c(-c2ccc(Cl)c(Cl)c2)[nH]1)(C(F)(F)F)C(F)(F)F [Example 17] |  |  | inhibition in vivo at 50 mg/kg [2, 5]: 21%
39 | CSc1ccc(-c2[nH]c(C(O)(C(F)(F)F)C(F)(F)F)nc2-c2ccc(F)cc2)cc1 [Example 21] |  |  | inhibition in vivo at 15 mg/kg ([2]; 168 h, Table 3, dose 15 mg/kg, oral once daily 7 days, read-out: Adjuvant Arthritis, percent reduction in paw volume at the indicated dose): 61%
40 | Cn1c(C(C)(C)O)nc(-c2ccc(F)cc2)c1-c1ccc(F)cc1 [Example 26] | > 108 |  | inhibition in vivo at 25 mg/kg [2, 6]: 47%
41 | COc1ccc(-c2nc(C(C)(O)C(F)(F)F)[nH]c2-c2ccc(OC)cc2)cc1 (stereo not drawn) [Example 18, 4,5-bis(4-methoxyphenyl)-α-methyl-α-trifluoromethyl-1H-imidazole-2-methanol] | 2.2 | 5.4 | 
